Measured values: US20090298805A1, “TOPICAL PYRITHIONE COMPOSITIONS AND METHODS FOR TREATMENT OF NAIL FUNGUS” (priority 2008, published 2009)

Experiments:
Trichophyton rubrum = assay: Microbiology efficacy test, formulations applied to paper disks, zone of inhibition; format: cell-based; conditions: T. rubrum; 50 microliters on 1/2 inch paper disk, air dried; Potato Dextrose Agar; average results
Excerpt: (§1) Each test formulation (50 microliters) was pipetted onto sterile ½ inch paper disks and was allowed to air dry. Spore suspensions of Trichophyton mentagrophytes and Trichophyton rubrum, were made using standard microbiological techniques. The resulting suspensions contained approximately 10,000,000 spores per milliliter. Sterile swabs were used to distribute the spore suspensions over the surface of Potato Dextrose Agar plates and one sample disk was placed in the center of each plate.

[1] = system: Trichophyton mentagrophytes; assay: as above; format: cell-based; conditions: T. mentagrophytes; 50 microliters on 1/2 inch paper disk, air dried; Potato Dextrose Agar; average results
Excerpt: as §1

T. mentagrophytes = assay: Formulations applied to artificial nail (IMS VITRO-NAILS), zone of inhibition; format: cell-based, Trichophyton mentagrophytes
Excerpt: Each test formulation (50 microliters) was pipetted onto sterile ½ inch paper disks and was allowed to air dry. Spore suspensions of Trichophyton mentagrophytes and Trichophyton rubrum, were made using standard microbiological techniques. The resulting suspensions contained approximately 10,000,000 spores per milliliter. Sterile swabs were used to distribute the spore suspensions over the surface of Potato Dextrose Agar plates and one sample disk was placed in the center of each plate. As an additional test, a synthetic nail substrate, IMS VITRO-NAILS, was used to simulate permeation of the active through a human nail. This material is reported to have the wetting properties, thickness and flexibility of human nails. This experiment was conducted in the same manner as first experiment above, except that the formulations were pipetted onto ¾-1 inch squares of VITRO-NAILS and either allowed to dry for 2 days before testing or place directly on the inoculated agar plates while wet.

`Cc1cc(C2CCCCC2)n(O)c(=O)c1` [Ciclopirox] was tested, and the “Zone of Inhibition” value (Trichophyton rubrum) was 19.0 mm, the “Zone of Inhibition” value [1] was 16.0 mm and the “Zone of Inhibition, Tested Dry” value (T. mentagrophytes; allowed to dry for 2 days before testing) was 8.75 mm. The “Zone of Inhibition, Tested Wet” value (T. mentagrophytes; placed directly on inoculated agar plates while wet) was 9 mm.
